# Measurements from patent US9862693B2, “Compounds and methods of treating cancer” (The Regents of the University of California, priority 2012, dated 2018).
# “Also recorded” adds a separate entry of the source. Where a name gives a salt, the structure may show the parent alone.
# Tests used:
# [1] = test system: HUVEC; assay: MTS cell number assay (CellTiter 96), normal cells; assay type: cell-based; conditions: Homo sapiens, 1 mM, 72 hours, MTS method, read-out: Biodata Normal HUVEC, cell numbers as percentage of vehicle treated controls
# Experimental: (§1) FIGS. 4A-4B. Effects of metformin and metformin analogues on normal cells. HMEC (FIG. 4A) and HUVEC (FIG. 4B) cells were plated in special media. After 24 hours, cells were treated with increasing concentrations of metformin and analogues JD001-JD009 (0.1, 1 and 5 mM). After 3 days, MTS assay was performed. Survival is expressed as percentage of vehicle treated control. Data represents at least two experiments.
# (§2) The effects of compounds described herein (including embodiments) (e.g. metformin analogues) were determined on two types of normal nonmalignant human cells, human umbilical vein endothelial cells (HUVEC) and human mammary epithelial cells (HMEC). There were no significant biologic effects noted on exposure to the metformin analogues.
# (§3) Cells were incubated in the presence of vehicle, metformin or metformin analogues for 72 hours in their respective media. After treatment cell numbers were determined with the MTS method using the CellTiter 96 Aqueous Non-Radioactive Cell Proliferation Assay (Promega). Numbers express percentage of vehicle treated controls at 1 mM concentration metformin or metformin analogues (JD001-JD009). TNBC: Triple Negative Breast Cancer Cells, ER+BC: Estrogen receptor positive breast cancer.
# [2] = test system: HMEC; assay: MTS cell number assay (CellTiter 96), normal cells; assay type: cell-based; conditions: Homo sapiens, 1 mM, 72 hours, MTS method, read-out: Biodata Normal HMEC, cell numbers as percentage of vehicle treated controls
# Experimental: as §1, §2, §3
# [3] = test system: MDA-MB-435; assay: MTS cell number assay (CellTiter 96), melanoma cells; assay type: cell-based; conditions: 1 mM, 72 hours, MTS method
# Experimental: (§4) FIGS. 3A-3B. Metformin analogues inhibit survival of non-small cell lung cancer (NSCLC) (FIG. 3A) and melanoma cell lines (FIG. 3B). A549 (NSCLC) and MDA-MB-435 (melanoma) cells were cultured in medium containing 1% fetal bovine serum and increasing concentrations of metformin (MET) and analogues JD001-JD007 (0.1, 1 and 5 mM). After 3 days, MTS assay was performed. Survival is expressed as percentage of control defined at 100%.
# as §3
# [4] = test system: PANC-1 cells; assay: Pancreatic cancer cell proliferation in vitro (cell counts); assay type: cell-based, human; conditions: 0.01, 0.1 and 1 mM, 72 hrs, 1% FBS, P<0.01, hydrochloride
# Experimental: FIG. 5. […] Cells were counted and plated. At 24 hrs after plating, cells were treated with metformin and JD003 at 0.01 mM, 0.1 mM, and 1 mM concentrations using medium with 1% FBS. After 72 hrs, cell proliferation was quantitated based on cell counts. Experiments were done 3-times, with results expressed as percent control (mean±SE).
# We hypothesize that metformin analogs can be prepared with enhanced anticancer activity and minimal non-target toxicity. […] Human pancreatic cancer cells PANC-1, were grown in DMEM with 2 mM glutamine, 1 mM sodium pyruvate, 100 units/mL penicillin, 100 μg/mL streptomycin and 10% FBS at 37 C in a humidified atmosphere with 10% CO2. Then, effects of treatment with metformin or analog JD003 on cell proliferation in vitro were tested. […] To find if analogs may have deleterious effects on normal human cells, we compared the cellular activity of metformin with that of analogs JD003 and JD004 using a pair of human breast epithelial cells. These included human mammary epithelial cells (HMEC) and MCF-7 tumor cells (MCF-7). […] In contrast, minimal antiproliferative effects are detected in nonmalignant human epithelial cells.
# [5] = test system: MCF7; assay: MTS cell number assay (CellTiter 96), ER+ breast cancer cells; assay type: cell-based; conditions: Homo sapiens, 1 mM, 72 hours, MTS method, read-out: ER+ BC MCF7, cell numbers as percentage of vehicle treated controls
# Experimental: FIG. 1. Metformin analogues inhibit growth/survival of ER+ MCF7 breast cancer cells. MCF7 cells were cultured in medium containing different concentrations of metformin and analogues (0.1, 1 and 5 mM). After 3 days, the percentage of surviving cells relative to controls, defined as 100% survival, was determined by the MTS assay. Data represents three independent experiments.
# Compounds described herein (e.g. metformin derivatives and/or analogues) were tested in human MCF-7 breast cancer cells, a standard ERalpha-positive model of breast malignancy (FIG. 1), and in four different cell lines classified as TNBC, including MDA-MB-231, HCC1937, HCC38 and HCC1806 (FIGS. 2A-2D). […] Experiments were also performed in: 1) a non-small cell lung cancer cell line that is known to be resistant to standard chemotherapy (A549); and 2) a melanoma-like cell model (MDA-MB-435). To find if analogues have effects on normal cells compounds were tested in two different types of cells, human umbilical vein endothelial cells (HUVEC) and human mammary epithelial cells (HMEC). The effects of metformin (MET) were compared with compounds JD001-JD009.
# as §3
# [6] = test system: A549; assay: MTS cell number assay (CellTiter 96), NSCLC cells; assay type: cell-based; conditions: Homo sapiens, 1 mM, 72 hours, MTS method, read-out: Biodata extra A549, cell numbers as percentage of vehicle treated controls
# Experimental: as §4, §3
# [7] = test system: MCF-7 cells; assay: Cell proliferation ELISA, BrdU colorimetric kit; assay type: cell-based, human; conditions: 0.1 mM and 1 mM, BrdU incorporation, 1% FBS, P<0.01; hydrochloride
# Experimental: FIGS. 6A-6C. […] Proliferation was assessed using cell proliferation ELISA, BrdU colorimetric kit (Roche). Cells were counted using a hemocytometer and plated. After 24 hrs, cells were treated with metformin and analogs JD003 and JD004 at 0.1 mM and 1 mM doses using phenol-red free medium with 1% FBS. After 48 hr, BrDU labeling solution was added and incubated for 24 h. Proliferation was assessed using BrDU incorporation by ELISA during DNA synthesis in proliferating cells. Data shown as % control (mean±SE) (n=3 experiments).
# We hypothesize that metformin analogs can be prepared with enhanced anticancer activity and minimal non-target toxicity. […] Human pancreatic cancer cells PANC-1, were grown in DMEM with 2 mM glutamine, 1 mM sodium pyruvate, 100 units/mL penicillin, 100 μg/mL streptomycin and 10% FBS at 37 C in a humidified atmosphere with 10% CO2. Then, effects of treatment with metformin or analog JD003 on cell proliferation in vitro were tested. […] In contrast, minimal antiproliferative effects are detected in nonmalignant human epithelial cells. […]
# Cell proliferation screening assays were done using cell proliferation ELISA, BrdU colorimetric kit (Roche). Cells were counted using a hemocytometer and plated in 96-well plates. […] Cell proliferation were quantitated based on measures of BrDU incorporation (by ELISA) during DNA synthesis in proliferating cells. […] Results were expressed as mean±SE. […]
# [8] = test system: MDA-MB-231; assay: MTS cell number assay (CellTiter 96), TNBC cells; assay type: cell-based; conditions: Homo sapiens, 1 mM, 72 hours, MTS method, read-out: Biodata TNBC MDA-MB-231, cell numbers as percentage of vehicle treated controls
# Experimental: (§5) FIGS. 2A-2D. Metformin analogues inhibit growth/survival of triple negative breast cancer cells. MDA-MB-231 (FIG. 2A), HCC38 (FIG. 2B), HCC1937 (FIG. 2C) and HCC1806 (FIG. 2D) cells were cultured in medium containing 1% fetal bovine serum and increasing concentrations of metformin and analogues JD001-JD009 (0.1, 1 and 5 mM). After 3 days, MTS assay was performed. The percentage of surviving cells relative to controls, defined as 100% survival, was determined by the MTS assay.
# as §3
# [9] = test system: HCC1937; assay: MTS cell number assay (CellTiter 96), TNBC cells; assay type: cell-based; conditions: 1 mM, 72 hours, MTS method
# Experimental: as §5, §3
# [10] = test system: MIAPaCa-2 and PANC-1 cells xenografted in nude mice; conditions: reported; cited from earlier work
# [11] = test system: triple-negative breast cancer cell lines; conditions: literature refs (2,3); cited from earlier work
# [12] = test system: HCC38; assay: MTS cell number assay (CellTiter 96), TNBC cells; assay type: cell-based; conditions: 1 mM, 72 hours, MTS method
# Experimental: as §5, §3
# [13] = test system: HCC1806; assay: MTS cell number assay (CellTiter 96), TNBC cells; assay type: cell-based; conditions: 1 mM, 72 hours, MTS method
# Experimental: as §5, §3
smiles,measurement,setting,value
"N=C(NC(=N)N1CCOCC1)N1CCOCC1 [JD003, N-(Imino(morpholino)methyl)morpholine-4-carboximidamide hydrochloride]",viability at 1000 µM,[1],86.7%
same,viability at 1000 µM,[2],107%
same,"Biodata extra MDA-MB-435, cell numbers as percentage of vehicle treated controls",[3],50.4 percentage of vehicle treated controls
same,Inhibition of pancreatic cancer cell proliferation compared with metformin,[4],significantly greater inhibition of pancreatic cancer cell proliferation in vitro than parent compound metformin; also recorded: shows promise as a congener with more potent antitumor activity
same,viability at 1000 µM,[5],61.3%
same,viability at 1000 µM,[6],98%
same,Blocking proliferation of MCF-7 cells compared with metformin,[7],more effective in blocking proliferation of MCF-7 cells; also recorded: enhanced antiproliferative activity in breast cancer cells as compared to metformin
same,viability at 1000 µM,[8],93.2%
same,"Biodata TNBC HCC1937, cell numbers as percentage of vehicle treated controls",[9],37.8 percentage of vehicle treated controls
"CN(C)C(=N)NC(=N)N [Metformin (000), 1,1-dimethyl-biguanide hydrochloride, reference compound]",viability at 1000 µM,[1],83.9%
same,viability at 1000 µM,[2],99.8%
same,"Biodata extra MDA-MB-435, cell numbers as percentage of vehicle treated controls",[3],77.7 percentage of vehicle treated controls
same,viability at 1000 µM,[5],105%
same,Growth of xenografted pancreatic cancer cells,[10],significantly decrease growth
same,viability at 1000 µM,[6],72.2%
same,Antitumor activity against triple-negative breast cancer cell lines,[11],only at high millimolar concentrations
same,"Biodata TNBC HCC38, cell numbers as percentage of vehicle treated controls",[12],92.5 percentage of vehicle treated controls
same,"Biodata TNBC HCC1806, cell numbers as percentage of vehicle treated controls",[13],90.2 percentage of vehicle treated controls
same,viability at 1000 µM,[8],110%
same,"Biodata TNBC HCC1937, cell numbers as percentage of vehicle treated controls",[9],92.9 percentage of vehicle treated controls
